From US10681909B2, “Herbicidal triazoles” (FMC Corporation, priority 2014, dated 2020)

Assays:
barnyardgrass [1] = assay: Test A preemergence; assay type: in vivo, Echinochloa crus-galli; conditions: 0 to 100 scale (0 no effect, 100 complete control)
Outline: (§1)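 Loam/sand soil mix; compound in non-phytotoxic solvent + surfactant. Pre: directed soil spray right after planting seed. Post: potted plants 2–10 cm, 1–2 leaf stage, sprayed with same formulation.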

crabgrass, large [2] = assay: Test A preemergence; assay type: in vivo, Digitaria sanguinalis; conditions: 0 to 100 scale (0 no effect, 100 complete control)
Outline: as §1

foxtail, giant [3] = assay: Test A preemergence; assay type: in vivo, Setaria faberii; conditions: 0 to 100 scale (0 no effect, 100 complete control)
Outline: as §1

morningglory [4] = assay: Test A preemergence; assay type: in vivo, Ipomoea spp.; conditions: 0 to 100 scale (0 no effect, 100 complete control)
Outline: as §1

pigweed [5] = assay: Test A preemergence; assay type: in vivo, Amaranthus retroflexus; conditions: 0 to 100 scale (0 no effect, 100 complete control)
Outline: as §1

velvetleaf [6] = assay: Test A preemergence; assay type: in vivo, Abutilon theophrasti; conditions: 0 to 100 scale (0 no effect, 100 complete control)
Outline: as §1

wheat [7] = assay: Test A preemergence; assay type: in vivo, Triticum aestivum; conditions: 0 to 100 scale (0 no effect, 100 complete control)
Outline: as §1

corn [8] = assay: Test A preemergence; assay type: in vivo, Zea mays; conditions: 0 to 100 scale (0 no effect, 100 complete control)
Outline: as §1

barnyardgrass [9] = assay: Test A postemergence; assay type: in vivo, Echinochloa crus-galli; conditions: 0 to 100 scale (0 no effect, 100 complete control), approx. 10 d
Outline: as §1

crabgrass, large [10] = assay: Test A postemergence; assay type: in vivo, Digitaria sanguinalis; conditions: 0 to 100 scale (0 no effect, 100 complete control), approx. 10 d
Outline: as §1

foxtail, giant [11] = assay: Test A postemergence; assay type: in vivo, Setaria faberii; conditions: 0 to 100 scale (0 no effect, 100 complete control), approx. 10 d
Outline: as §1

morningglory [12] = assay: Test A postemergence; assay type: in vivo, Ipomoea spp.; conditions: 0 to 100 scale (0 no effect, 100 complete control), approx. 10 d
Outline: as §1

pigweed [13] = assay: Test A postemergence; assay type: in vivo, Amaranthus retroflexus; conditions: 0 to 100 scale (0 no effect, 100 complete control), approx. 10 d
Outline: as §1

velvetleaf [14] = assay: Test A postemergence; assay type: in vivo, Abutilon theophrasti; conditions: 0 to 100 scale (0 no effect, 100 complete control), approx. 10 d
Outline: as §1

wheat [15] = assay: Test A postemergence; assay type: in vivo, Triticum aestivum; conditions: 0 to 100 scale (0 no effect, 100 complete control), approx. 10 d
Outline: as §1

corn [16] = assay: Test A postemergence; assay type: in vivo, Zea mays; conditions: 0 to 100 scale (0 no effect, 100 complete control), approx. 10 d
Outline: as §1

rice = assay: Test B flooded paddy test; assay type: in vivo, Oryza sativa; conditions: 250 g ai/ha, applied to paddy water at 2-leaf stage, visual rating after 13 to 15 d, scale 0 (no effect) to 100 (complete control)
Outline: (§2)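 Pots were flooded to 3 cm above the soil at treatment, and compounds were applied directly into the paddy water. That depth was held throughout. After 13 to 15 d in a greenhouse, plants were rated visually against untreated controls.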

sedge, umbrella = assay: Test B flooded paddy test; assay type: in vivo, Cyperus difformis; conditions: 250 g ai/ha, applied to paddy water at 2-leaf stage, visual rating after 13 to 15 d, scale 0 (no effect) to 100 (complete control)
Outline: as §2

ducksalad = assay: Test B flooded paddy test; assay type: in vivo, Heteranthera limosa; conditions: 250 g ai/ha, applied to paddy water at 2-leaf stage, visual rating after 13 to 15 d, scale 0 (no effect) to 100 (complete control)
Outline: as §2

barnyardgrass [17] = assay: Test B flooded paddy test; assay type: in vivo, Echinochloa crus-galli; conditions: 250 g ai/ha, applied to paddy water at 2-leaf stage, visual rating after 13 to 15 d, scale 0 (no effect) to 100 (complete control)
Outline: as §2

Compound | Plant response rating, Barnyardgrass (barnyardgrass [1]; 125 g ai/ha) | Plant response rating, Barnyardgrass (barnyardgrass [1]; 500 g ai/ha, approx. 10 d) | Plant response rating, Crabgrass, Large (crabgrass, large [2]; 125 g ai/ha) | Plant response rating, Crabgrass, Large (crabgrass, large [2]; 500 g ai/ha, approx. 10 d) | Plant response rating, Foxtail, Giant (foxtail, giant [3]; 125 g ai/ha) | Plant response rating, Foxtail, Giant (foxtail, giant [3]; 500 g ai/ha, approx. 10 d) | Plant response rating, Morningglory (morningglory [4]; 125 g ai/ha) | Plant response rating, Morningglory (morningglory [4]; 500 g ai/ha, approx. 10 d) | Plant response rating, Pigweed (pigweed [5]; 125 g ai/ha) | Plant response rating, Pigweed (pigweed [5]; 500 g ai/ha, approx. 10 d) | Plant response rating, Velvetleaf (velvetleaf [6]; 125 g ai/ha) | Plant response rating, Velvetleaf (velvetleaf [6]; 500 g ai/ha, approx. 10 d) | Plant response rating, Wheat (wheat [7]; 125 g ai/ha) | Plant response rating, Wheat (wheat [7]; 500 g ai/ha, approx. 10 d) | Plant response rating, Corn (corn [8]; 125 g ai/ha) | Plant response rating, Corn (corn [8]; 500 g ai/ha, approx. 10 d) | Plant response rating, Barnyardgrass (barnyardgrass [9]; 125 g ai/ha) | Plant response rating, Barnyardgrass (barnyardgrass [9]; 500 g ai/ha) | Plant response rating, Crabgrass, Large (crabgrass, large [10]; 125 g ai/ha) | Plant response rating, Crabgrass, Large (crabgrass, large [10]; 500 g ai/ha) | other results
CSc1nc(-c2ccc(F)cc2)nn1Cc1ccnc(C(F)(F)F)c1 [Compound 21] | 0 | 0 | 10 | 80 | 0 | 60 | 0 | 0 | 10 | 90 | 0 | 0 | 0 | 0 | 0 | 0 | 0 | 10 | 20 | 20 | Plant response rating, Foxtail, Giant (foxtail, giant [11]; 125 g ai/ha): 10; Plant response rating, Foxtail, Giant (foxtail, giant [11]; 500 g ai/ha): 20; Plant response rating, Morningglory (morningglory [12]; 125 g ai/ha): 20; Plant response rating, Morningglory (morningglory [12]; 500 g ai/ha): 30; Plant response rating, Pigweed (pigweed [13]; 125 g ai/ha): 30; Plant response rating, Pigweed (pigweed [13]; 500 g ai/ha): 80; Plant response rating, Velvetleaf (velvetleaf [14]; 125 g ai/ha): 10; Plant response rating, Velvetleaf (velvetleaf [14]; 500 g ai/ha): 20; Plant response rating, Wheat (wheat [15]; 125 g ai/ha): 0; Plant response rating, Wheat (wheat [15]; 500 g ai/ha): 10; Plant response rating, Corn (corn [16]; 125 g ai/ha): 10; Plant response rating, Corn (corn [16]; 500 g ai/ha): 20; Plant response rating, Rice, Flood (rice): 25; Plant response rating, Sedge, Umbrella, Flood (sedge, umbrella): 90; Plant response rating, Ducksalad, Flood (ducksalad): 95; Plant response rating, Barnyardgrass, Flood (barnyardgrass [17]): 80
CCCc1nc(-c2ccc(Cl)cc2)nn1Cc1ccnc(C(F)(F)F)c1 [Compound 22] | 40 | 70 | 100 | 100 | 100 | 100 | 10 | 70 | 100 | 100 | 20 | 40 | 10 | 20 | 10 | 20 | 40 | 60 | 100 | 100 | Plant response rating, Foxtail, Giant (foxtail, giant [11]; 125 g ai/ha): 70; Plant response rating, Foxtail, Giant (foxtail, giant [11]; 500 g ai/ha): 80; Plant response rating, Morningglory (morningglory [12]; 125 g ai/ha): 50; Plant response rating, Morningglory (morningglory [12]; 500 g ai/ha): 80; Plant response rating, Pigweed (pigweed [13]; 125 g ai/ha): 100; Plant response rating, Pigweed (pigweed [13]; 500 g ai/ha): 100; Plant response rating, Velvetleaf (velvetleaf [14]; 125 g ai/ha): 60; Plant response rating, Velvetleaf (velvetleaf [14]; 500 g ai/ha): 100; Plant response rating, Wheat (wheat [15]; 125 g ai/ha): 30; Plant response rating, Wheat (wheat [15]; 500 g ai/ha): 40; Plant response rating, Corn (corn [16]; 125 g ai/ha): 20; Plant response rating, Corn (corn [16]; 500 g ai/ha): 50; Plant response rating, Rice, Flood (rice): 0; Plant response rating, Sedge, Umbrella, Flood (sedge, umbrella): 0; Plant response rating, Ducksalad, Flood (ducksalad): 0; Plant response rating, Barnyardgrass, Flood (barnyardgrass [17]): 0
